Laboratory results taken from US9029325B2, “Amylin analogues and pharmaceutical compositions thereof” (Novo Nordisk A/S, priority 2011, dated 2015).
Starred links: 1 amine or outer side, 2 acyl side, 3 side chain; linkers in the order of their positions; H or OH if unused. Positions of bridges follow the written chain, without caps; N, C: chain ends. Residues, ends and D or L forms follow the SMILES beside them. *: point of attachment. C20 diacid = O=C(O)CCCCCCCCCCCCCCCCCCC(=O)*; C18 diacid = O=C(O)CCCCCCCCCCCCCCCCC(=O)*; γGlu = O=C(O)[C@H](CCC(=O)[*:2])N[*:1]

Assay: Assay (I) efficacy testing on appetite (food intake), ad libitum fed rat model
Assay type: in vivo, Sprague Dawley (SD) rats
Source text: Sprague Dawley (SD) rats from Taconic Europe, Denmark are used for the experiments. The rats have a body weight 200-250 g at the start of experiment. The rats arrive at least 10-14 days before start of experiment to allow acclimatization to experimental settings. During this period the animals are handled at least 2 times. After arrival rats are housed individually for one week in a reversed light/dark phase (meaning that lights are off during daytime and on during nighttime) […]. Since rats are normally active and eat their major part of their daily food intake during the dark period, rats are dosed in the morning right before lights are turned off. This set-up results in the lowest data variation and highst test sensitivity. The experiment is conducted in the rats' home cages and rats have free access to food and water througout the acclimatization period and the experiment period. Each dose of derivative is tested in a group of 5-8 rats. A vehicle group of 6-8 rats is included in each set of testing. Rats are dosed once according to body weight with a 0.01-3 mg/kg solution administered intraperitoneally (ip), orally (po) or subcutaneously (sc). The time of dosing is recorded for each group. After dosing, the rats are returned to their home cages, where they then have access to food and water. The food consumption is recorded individually continuously by on-line registration or manually every hour for 7 hours, and then after 24 h and sometimes 48 h. At the end of the experimental session, the animals are euthanised.
The individual data are recorded in Microsoft excel sheets. Outliers are excluded after applying the Grubbs statistical evaluation test for outliers, and the result is presented graphically using the GraphPad Prism program.

| SMILES | Food intake reduction 0-24 h 3 nmol/kg (%) | Food intake reduction 24-48 h 3 nmol/kg (%) | Food intake reduction 0-24 h 30 nmol/kg (%) | Food intake reduction 24-48 h 30 nmol/kg (%) |
| --- | --- | --- | --- | --- |
| CC[C@H](C)[C@H](NC(=O)[C@@H]1CCCN1C(=O)CNC(=O)[C@H](Cc1ccccc1)NC(=O)[C@H](CC(N)=O)NC(=O)[C@H](CC(N)=O)NC(=O)[C@H](CO)NC(=O)[C@H](CO)NC(=O)[C@H](CCCNC(=N)N)NC(=O)[C@H](Cc1c[nH]cn1)NC(=O)[C@H](CC(C)C)NC(=O)[C@H](Cc1ccccc1)NC(=O)[C@H](CCC(=O)O)NC(=O)[C@H](C)NC(=O)[C@H](CC(C)C)NC(=O)[C@H](CCCNC(=N)N)NC(=O)[C@H](CCC(N)=O)NC(=O)[C@@H](NC(=O)[C@H](C)NC(=O)[C@@H]1CSSC[C@H](NC(=O)[C@H](CCC(=O)O)NC(=O)CC[C@H](NC(=O)CCCCCCCCCCCCCCCCCCC(=O)O)C(=O)O)C(=O)N[C@@H](CC(N)=O)C(=O)N[C@@H]([C@@H](C)O)C(=O)N[C@@H](C)C(=O)N[C@@H]([C@@H](C)O)C(=O)N1)[C@@H](C)O)C(=O)N[C@@H](CC(C)C)C(=O)N1CCC[C@H]1C(=O)N1CCC[C@H]1C(=O)N[C@H](C(=O)N[C@@H](CC(N)=O)C(=O)N[C@H](C(=O)NCC(=O)N[C@@H](CO)C(=O)N[C@@H](CC(N)=O)C(=O)N[C@H](C(=O)N1CCC[C@H]1C(N)=O)[C@@H](C)O)C(C)C)[C@@H](C)O [Example 10, N-alpha-[(S)-4-Carboxy-4-(19-carboxynonadecanoylamino)butyryl]-[Glu1, Glu14, His17, Arg18, Pro37]-pramlintide] ({C20 diacid-γGlu}-ECNTATCATQRLAEFLHRSSNNFGPILPPTNVGSNTP-NH2; disulfide 2-7) | 50% | 40% | – | – |
| CC[C@H](C)[C@H](NC(=O)[C@@H]1CCCN1C(=O)CNC(=O)[C@H](Cc1ccccc1)NC(=O)[C@H](CC(N)=O)NC(=O)[C@H](CC(N)=O)NC(=O)[C@H](CO)NC(=O)[C@H](CO)NC(=O)[C@H](Cc1c[nH]cn1)NC(=O)[C@H](Cc1c[nH]cn1)NC(=O)[C@H](CC(C)C)NC(=O)[C@H](Cc1ccccc1)NC(=O)[C@H](CCC(=O)O)NC(=O)[C@H](C)NC(=O)[C@H](CC(C)C)NC(=O)[C@H](CCCNC(=N)N)NC(=O)[C@H](CCC(N)=O)NC(=O)[C@@H](NC(=O)[C@H](C)NC(=O)[C@@H]1CSSC[C@H](NC(=O)[C@H](Cc2c[nH]cn2)NC(=O)[C@H](Cc2c[nH]cn2)NC(=O)[C@H](Cc2c[nH]cn2)NC(=O)CC[C@H](NC(=O)CCCCCCCCCCCCCCCCCCC(=O)O)C(=O)O)C(=O)N[C@@H](CC(N)=O)C(=O)N[C@@H]([C@@H](C)O)C(=O)N[C@@H](C)C(=O)N[C@@H]([C@@H](C)O)C(=O)N1)[C@@H](C)O)C(=O)N[C@@H](CC(C)C)C(=O)N1CCC[C@H]1C(=O)N1CCC[C@H]1C(=O)N[C@H](C(=O)N[C@@H](CC(N)=O)C(=O)N[C@H](C(=O)NCC(=O)N[C@@H](CO)C(=O)N[C@@H](CC(N)=O)C(=O)N[C@H](C(=O)N[C@@H](Cc1ccc(O)cc1)C(N)=O)[C@@H](C)O)C(C)C)[C@@H](C)O [Example 11, N-alpha-[(S)-4-Carboxy-4-(19-carboxynonadecanoylamino)butyryl]-His-His-[His1,Glu14,His17]-pramlintide] ({C20 diacid-γGlu}-HHHCNTATCATQRLAEFLHHSSNNFGPILPPTNVGSNTY-NH2; disulfide 4-9) | – | – | 87% | 92% |
| CC[C@H](C)[C@H](NC(=O)[C@@H]1CCCN1C(=O)CNC(=O)[C@H](Cc1ccccc1)NC(=O)[C@H](CC(N)=O)NC(=O)[C@H](CC(N)=O)NC(=O)[C@H](CO)NC(=O)[C@H](CO)NC(=O)[C@H](Cc1c[nH]cn1)NC(=O)[C@H](Cc1c[nH]cn1)NC(=O)[C@H](CC(C)C)NC(=O)[C@H](Cc1ccccc1)NC(=O)[C@H](CCC(=O)O)NC(=O)[C@H](C)NC(=O)[C@H](CC(C)C)NC(=O)[C@H](CCCNC(=N)N)NC(=O)[C@H](CCC(N)=O)NC(=O)[C@@H](NC(=O)[C@H](C)NC(=O)[C@@H]1CSSC[C@H](NC(=O)[C@H](CCCCN)NC(=O)CC[C@H](NC(=O)CCCCCCCCCCCCCCCCCCC(=O)O)C(=O)O)C(=O)N[C@@H](CC(N)=O)C(=O)N[C@@H]([C@@H](C)O)C(=O)N[C@@H](C)C(=O)N[C@@H]([C@@H](C)O)C(=O)N1)[C@@H](C)O)C(=O)N[C@@H](CC(C)C)C(=O)N1CCC[C@H]1C(=O)N1CCC[C@H]1C(=O)N[C@H](C(=O)N[C@@H](CC(N)=O)C(=O)N[C@H](C(=O)NCC(=O)N[C@@H](CO)C(=O)N[C@@H](CC(N)=O)C(=O)N[C@H](C(=O)N[C@@H](Cc1ccc(O)cc1)C(N)=O)[C@@H](C)O)C(C)C)[C@@H](C)O [Example 27, N-alpha-[(S)-4-Carboxy-4-(19-carboxynonadecanoylamino)butyryl]-[Glu14,His17]-pramlintide] ({C20 diacid-γGlu}-KCNTATCATQRLAEFLHHSSNNFGPILPPTNVGSNTY-NH2; disulfide 2-7) | 56% | 53% | – | – |
| CC[C@H](C)[C@H](NC(=O)[C@@H]1CCCN1C(=O)CNC(=O)[C@H](Cc1ccccc1)NC(=O)[C@H](CC(N)=O)NC(=O)[C@H](CC(N)=O)NC(=O)[C@H](CO)NC(=O)[C@H](CO)NC(=O)[C@H](Cc1c[nH]cn1)NC(=O)[C@H](Cc1c[nH]cn1)NC(=O)[C@H](CC(C)C)NC(=O)[C@H](Cc1ccccc1)NC(=O)[C@H](CCC(=O)O)NC(=O)[C@H](C)NC(=O)[C@H](CC(C)C)NC(=O)[C@H](CCCNC(=N)N)NC(=O)[C@H](CCC(N)=O)NC(=O)[C@@H](NC(=O)[C@H](C)NC(=O)[C@@H]1CSSC[C@H](NC(=O)[C@H](CCCCN)NC(=O)[C@H](CCC(=O)O)NC(=O)CC[C@H](NC(=O)CCCCCCCCCCCCCCCCC(=O)O)C(=O)O)C(=O)N[C@@H](CC(N)=O)C(=O)N[C@@H]([C@@H](C)O)C(=O)N[C@@H](C)C(=O)N[C@@H]([C@@H](C)O)C(=O)N1)[C@@H](C)O)C(=O)N[C@@H](CC(C)C)C(=O)N1CCC[C@H]1C(=O)N1CCC[C@H]1C(=O)N[C@H](C(=O)N[C@@H](CC(N)=O)C(=O)N[C@H](C(=O)NCC(=O)N[C@@H](CO)C(=O)N[C@@H](CC(N)=O)C(=O)N[C@H](C(=O)N[C@@H](Cc1ccc(O)cc1)C(N)=O)[C@@H](C)O)C(C)C)[C@@H](C)O [Example 42, N-alpha-[(S)-4-Carboxy-4-(17-carboxyheptadecanoylamino)butyryl]-Glu-[Glu14, His17]-pramlintide] ({C18 diacid-γGlu}-EKCNTATCATQRLAEFLHHSSNNFGPILPPTNVGSNTY-NH2; disulfide 3-8 (inferred); C-terminus assumed) | 45% | 5% | – | – |
| CC[C@H](C)[C@H](NC(=O)[C@@H]1CCCN1C(=O)CNC(=O)[C@H](Cc1ccccc1)NC(=O)[C@H](CC(N)=O)NC(=O)[C@H](CC(N)=O)NC(=O)[C@H](CO)NC(=O)[C@H](CO)NC(=O)[C@H](Cc1c[nH]cn1)NC(=O)[C@H](Cc1c[nH]cn1)NC(=O)[C@H](CC(C)C)NC(=O)[C@H](Cc1ccccc1)NC(=O)[C@H](CCC(=O)O)NC(=O)[C@H](C)NC(=O)[C@H](CC(C)C)NC(=O)[C@H](CCCNC(=N)N)NC(=O)[C@H](CCC(N)=O)NC(=O)[C@@H](NC(=O)[C@H](C)NC(=O)[C@@H]1CSSC[C@H](NC(=O)[C@H](CCCCN)NC(=O)CC[C@H](NC(=O)CCCCCCCCCCCCCCCCCCC(=O)O)C(=O)O)C(=O)N[C@@H](CC(N)=O)C(=O)N[C@@H]([C@@H](C)O)C(=O)N[C@@H](C)C(=O)N[C@@H]([C@@H](C)O)C(=O)N1)[C@@H](C)O)C(=O)N[C@@H](CC(C)C)C(=O)N1CCC[C@H]1C(=O)N1CCC[C@H]1C(=O)N[C@H](C(=O)N[C@@H](CC(N)=O)C(=O)N[C@H](C(=O)NCC(=O)N[C@@H](CO)C(=O)N[C@@H](Cc1c[nH]cn1)C(=O)N[C@H](C(=O)N[C@@H](Cc1ccc(O)cc1)C(N)=O)[C@@H](C)O)C(C)C)[C@@H](C)O [Example 55, N-alpha-[(S)-4-Carboxy-4-(19-carboxynonadecanoylamino)butyryl]-[Glu14,His17,His 35]-pramlintide] ({C20 diacid-γGlu}-KCNTATCATQRLAEFLHHSSNNFGPILPPTNVGSHTY-NH2; disulfide 2-7 (inferred); C-terminus assumed) | 58% | 40% | 88% | 90% |
